Assay results as given in paper PMC11134391 (JACS Au, 2024).
pKi: −log10 of the molar value.

How the values were obtained:
HDAC8 [1] = molecular target: T1, HDAC8 (Homo sapiens, UniProt Q9BY41); assay: HDAC inhibition assay; type: biochemical
T1 sequence (Q9BY41 1-377): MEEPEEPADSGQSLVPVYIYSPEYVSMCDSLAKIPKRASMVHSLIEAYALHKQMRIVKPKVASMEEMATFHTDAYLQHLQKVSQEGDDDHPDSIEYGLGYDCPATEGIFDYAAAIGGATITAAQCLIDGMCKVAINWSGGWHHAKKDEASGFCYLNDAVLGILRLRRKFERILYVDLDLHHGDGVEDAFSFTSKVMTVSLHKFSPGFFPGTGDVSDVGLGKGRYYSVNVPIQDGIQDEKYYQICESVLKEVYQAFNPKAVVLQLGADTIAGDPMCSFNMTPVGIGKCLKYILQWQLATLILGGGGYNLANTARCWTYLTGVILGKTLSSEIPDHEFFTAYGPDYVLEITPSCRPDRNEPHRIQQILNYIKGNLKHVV

HDAC6 [2] = molecular target: T2, HDAC6 (Homo sapiens, UniProt Q9UBN7); assay: HDAC inhibition assay; type: biochemical; conditions: for selectivity for HDAC6 over HDAC8 (between the two enzymes): from Ki values
T2 sequence (Q9UBN7 1-1215): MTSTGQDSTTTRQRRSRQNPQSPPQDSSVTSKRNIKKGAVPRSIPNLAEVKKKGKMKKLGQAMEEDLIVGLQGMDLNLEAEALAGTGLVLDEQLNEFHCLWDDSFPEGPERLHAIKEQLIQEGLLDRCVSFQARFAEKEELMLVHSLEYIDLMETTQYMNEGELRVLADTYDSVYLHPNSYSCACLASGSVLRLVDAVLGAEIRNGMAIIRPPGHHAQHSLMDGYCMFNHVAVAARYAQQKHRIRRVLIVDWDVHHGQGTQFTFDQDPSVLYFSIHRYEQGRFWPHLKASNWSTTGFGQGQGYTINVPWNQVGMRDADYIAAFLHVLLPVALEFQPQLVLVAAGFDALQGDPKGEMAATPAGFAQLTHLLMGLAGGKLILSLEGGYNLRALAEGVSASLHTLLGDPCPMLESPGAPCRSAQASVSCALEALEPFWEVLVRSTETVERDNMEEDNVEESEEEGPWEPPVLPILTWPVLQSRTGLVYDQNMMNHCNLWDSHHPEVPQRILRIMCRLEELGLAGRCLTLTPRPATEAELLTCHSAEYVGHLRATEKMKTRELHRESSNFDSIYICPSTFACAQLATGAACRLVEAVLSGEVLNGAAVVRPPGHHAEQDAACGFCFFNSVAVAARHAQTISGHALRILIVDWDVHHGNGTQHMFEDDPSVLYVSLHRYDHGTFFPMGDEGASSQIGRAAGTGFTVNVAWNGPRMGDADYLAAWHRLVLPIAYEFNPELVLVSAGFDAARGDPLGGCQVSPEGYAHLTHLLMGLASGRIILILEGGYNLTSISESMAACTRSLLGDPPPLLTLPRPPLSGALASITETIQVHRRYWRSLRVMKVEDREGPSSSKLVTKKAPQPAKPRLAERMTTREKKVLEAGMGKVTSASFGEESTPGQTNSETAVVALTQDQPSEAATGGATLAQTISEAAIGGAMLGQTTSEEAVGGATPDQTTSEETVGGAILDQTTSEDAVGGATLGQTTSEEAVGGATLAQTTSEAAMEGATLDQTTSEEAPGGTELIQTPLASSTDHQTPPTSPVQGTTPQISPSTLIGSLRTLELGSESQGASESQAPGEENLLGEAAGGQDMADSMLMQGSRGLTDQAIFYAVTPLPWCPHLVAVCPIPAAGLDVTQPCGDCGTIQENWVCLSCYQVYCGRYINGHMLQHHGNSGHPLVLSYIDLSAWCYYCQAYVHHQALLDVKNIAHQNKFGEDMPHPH

[3] = system: lysine acetylation (α-tubulin, H3K18, H3K27, and SMC3) in HEK293T cells; assay: Protein acetylation assay; type: cell-based, human; conditions: 5 h, 1 or 10 μM, Western blot
HDAC6 [4] = molecular target: T2, HDAC6; assay: HDAC inhibition assay with preincubation, HDAC6; type: biochemical; conditions: preincubation 0, 0.5, 1 or 2 h at 37 °C
HDAC11 = molecular target: T3, HDAC11 (Homo sapiens, UniProt Q96DB2); assay: HDAC inhibition assay with preincubation, HDAC11; type: biochemical; conditions: preincubation 0, 0.5, 1 or 2 h at 37 °C
T3 sequence (Q96DB2 1-347): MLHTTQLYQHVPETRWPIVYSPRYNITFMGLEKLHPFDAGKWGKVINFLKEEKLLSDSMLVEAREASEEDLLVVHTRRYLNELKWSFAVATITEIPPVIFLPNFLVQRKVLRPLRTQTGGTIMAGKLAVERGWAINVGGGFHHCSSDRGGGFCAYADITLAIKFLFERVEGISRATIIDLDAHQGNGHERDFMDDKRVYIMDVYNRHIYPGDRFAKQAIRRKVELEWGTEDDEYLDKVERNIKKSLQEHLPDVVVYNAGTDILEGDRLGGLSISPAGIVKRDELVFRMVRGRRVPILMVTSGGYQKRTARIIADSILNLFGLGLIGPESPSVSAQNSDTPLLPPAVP

HDAC8 [5] = molecular target: T1, HDAC8; assay: Cellular thermal shift assay; type: cell-based; conditions: HEK293T cells, 10 µM, 2 h

Row | pKi (HDAC8 [1]) | selectivity for HDAC6 over HDAC8 (between the two enzymes) (HDAC6 [2]) [fold] | pKi (HDAC6 [2]) | thermal shift of HDAC8 relative to DMSO control (HDAC8 [5]) | Compound | acetylation of α-tubulin compared to DMSO control [3] | change of IC50 upon preincubation with HDAC6 (HDAC6 [4]) | change of IC50 upon preincubation with HDAC11 (HDAC11)
1 | 7.66 | – | – | – | COc1ccc(OS(=O)(=O)Oc2cccc(C(=O)NO)c2)cc1OC [A17] | – | – | –
2 | – | 20 | – | – | O=C(NO)c1cc(F)cc(OS(=O)(=O)Oc2ccccc2)c1 [C1] | significant upregulation | did not observe any decrease in IC50 value upon preincubation | –
3 | – | – | – | – | Cc1c(OS(=O)(=O)Oc2ccc(Oc3ccccc3)cc2)cccc1C(=O)NO [D21] | – | – | did not observe any decrease in IC50 value upon preincubation
4 | – | ~20 | 7.85 | no shift | O=C(NO)c1cncc(OS(=O)(=O)Oc2ccc3ccccc3c2)c1 [E24] | significant upregulation | did not observe any decrease in IC50 value upon preincubation | –
